Source: PMC3629230, “Permeability Enhancers Dramatically Increase Zanamivir Absolute Bioavailability in Rats: Implications for an Orally Bioavailable Influenza Treatment” (PLoS ONE, 2013)
“And” between values parts separate entries of the source, which are not always exact repeats. Identical values can stand only once. “Also recorded” adds a separate entry of the source.

Tests used:
Caco-2 cell monolayers = experiment: Unidirectional (A-to-B) permeability of zanamivir across Caco-2 cell monolayers with and without excipients; type: in vitro ADME; conditions: A-to-B, zanamivir 15 µg/mL
Procedure: Caco-2 cells were obtained from American Type Culture Collection (Rockville, MD). Stock cultures were maintained in flasks with DMEM medium supplemented with 10% FBS, 1% non-essential amino acids, 1 mmol/L sodium pyruvate, 100 IU/mL penicillin, and 100 µg/mL streptomycin in a humidified incubator (37°C, 5% CO2). Cells were harvested by trypsinization and seeded at 60,000 cells/cm^2 onto Costar Transwell® 12-well dual-chamber plates with collagen-coated, microporous polycarbonate membranes (1.13 cm^2 insert area, 0.4 µm pore size; Corning Life Sciences, Acton, MA) for permeability studies. The culture medium was changed three times per week.
Caco-2 cell monolayers that had grown for at least 20 days were subjected to batch quality control testing in which permeation rates were measured for atenolol, digoxin, estrone-3-sulfate, lucifer yellow (LY), and propranolol. In addition, the transepithelial electrical resistance (TEER) across each experimental monolayer was tested prior to an experiment.
Unidirectional (A-to-B) permeability of zanamivir was determined at 15 µg/mL in the absence and presence of varying concentrations of excipients in Caco-2 cell monolayers. The assay buffer was Hanks' balanced salt solution (HBSS) supplemented with 10 mM 4-(2-hydroxyethyl)-1-piperazineethanesulfonic acid (HEPES) and 15 mM D-glucose (HBSSg), pH 7.4. The dosing solutions on the apical side (0.5 mL) contained either zanamivir and excipients at each concentration being tested or zanamivir only (n = 4), while the receiver buffer in the bottom well (1.5 mL) was always excipient-free. The Caco-2 cell monolayers were incubated for 120 min in a humidified incubator (37°C, 5% CO2) after dosing in the apical chambers. Aliquots (200 µL each) of receiver buffer were sampled at 60 min, 90 min, and 120 min after dosing, with replacement by the same volume of blank buffer (at 60 min and 90 min). Donors were sampled at 0 and 120 min.
Experimental samples were identically treated.

[1] = Pharmacokinetics and absolute bioavailability after intraduodenal administration in rats; conditions: for Cmax / Tmax / AUC(0-t) / AUC(0-inf) / half-life / bioavailability: male, Sprague-Dawley, rat, plasma; for AUC(0-t): AUClast; for half-life: t1/2, intraduodenal; for bioavailability: other: intraduodenal, absolute, vs 1.5 mg intravenous
Excerpt: Male Sprague-Dawley rats (Hilltop Labs, Scottdale, PA), 3 animals per treatment group, 250–350 grams in weight, were fitted with a jugular vein cannula (JVC). Animals intended for intraduodenal dosing were also fitted with one or more intraduodenal cannula (IDC) and those intended for intravenous dosing were fitted with a second JVC. Food was withheld from the animals for a minimum of twelve hours prior to test article administration and was returned approximately four hours post-dose. Water was supplied ad libitum.
Intraduodenal doses composed of 1.5 mg of zanamivir and varying amounts of an enhancer (glycerol or Capmul MCM L8) were injected directly into the duodenum via the IDC. To determine absolute bioavailability of the intraduodenal administered drug, intravenous dosing was conducted by the injection of 1.5 mg of zanamivir in 200 µL of PBS through a JVC. For some experiments, the absorption enhancer was administered intraduodenally 2 hr prior to administering 1.5 mg of zanamivir in PBS through a second IDC. Each intraduodenal dose was followed with the introduction of a small air bubble (∼10 µL) in the cannula followed by a flush of 125 µL of PBS to ensure the dose was given in full. The volume of PBS used for cannula flush was consistent across the treatment groups. The cannula was tied to prevent the PBS remaining in the cannula from entering the duodenum.
Blood samples collected via the JVC, approximately 400 µL each, were obtained at 2 min, 5 min, 15 min, 30 min, 60 min, 90 min, and 120 min, with sodium heparin used as an anti-coagulant. Each sample was placed into a chilled tube containing the anticoagulant and kept on ice until centrifugation at 4°C, 3,000× g, for 5 min. The plasma supernatants were stored at −70°C until LC-MS analysis.
Dosing solution samples were assayed by liquid chromatography-mass spectrometry (LC-MS/MS) using electrospray ionization. The chromatographic system consisted of Perkin Elmer series 200 micropumps and autosampler equipped with a Waters Atlantic® HILIC Silica […], 2.1×50 mm column. The mass spectrometer was a PE Sciex API 4000 with electrospray interface in multiple reaction monitoring mode. […] Stock solutions (1 mg/mL zanamivir) were prepared in water. Standards (eight concentrations) were prepared in the appropriate matched matrix (HBSSg or Sprague-Dawley rat plasma containing sodium heparin) and diluted 50-fold with methanol. Experimental samples were identically treated.

[2] = cited from earlier work
[3] = intraduodenal, 1.5 mg/animal in PBS, Capmul MCM L8 given 2 hr prior
[4] = intraduodenal, 1.5 mg/animal in PBS, glycerol given 2 hr prior
[5] = intraduodenal, 1.5 mg/animal, 50 µL vehicle Capmul MCM L8
[6] = intraduodenal, 1.5 mg/animal, 50 µL vehicle PBS
[7] = intraduodenal, 1.5 mg/animal, 50 µL vehicle glycerol
[8] = 0.75 mg, Figure 5 experiment, intraduodenal, 0.75 mg zanamivir, 50 µL Capmul MCM L8
[9] = 1.5 mg, intraduodenal, 1.5 mg/animal in PBS, Capmul MCM L8 given 2 hr prior
[10] = 1.5 mg, intraduodenal, 1.5 mg/animal in PBS, glycerol given 2 hr prior
[11] = 1.5 mg, intraduodenal, 1.5 mg/animal, 50 µL vehicle Capmul MCM L8
[12] = 1.5 mg, intraduodenal, 1.5 mg/animal, 50 µL vehicle PBS
[13] = 1.5 mg, intraduodenal, 1.5 mg/animal, 50 µL vehicle glycerol
[14] = 1.5 mg, Figure 5 experiment, intraduodenal, 1.5 mg zanamivir, 50 µL Capmul MCM L8
[15] = 3 mg, Figure 5 experiment, intraduodenal, 3.0 mg zanamivir, 50 µL Capmul MCM L8

Structure (SMILES): CC(=O)N[C@H]1[C@H]([C@H](O)[C@H](O)CO)OC(C(=O)O)=C[C@@H]1N=C(N)N [Zanamivir, zanamivir]
- Increase in apparent permeability coefficient (Papp) compared to no-enhancer control (Caco-2 cell monolayers; 0.25% Capmul MCM L8, pH 7.4): > 5 fold and 5.2 fold
- Increase in apparent permeability coefficient (Papp) compared to no-enhancer control (Caco-2 cell monolayers; 5% glycerol, pH 7.4): > 5 fold and 5.6 fold
- Absolute bioavailability relative to negative control ([1]; both enhancers (glycerol, Capmul MCM L8) given 2 hr prior to zanamivir): equivalent to that of the negative control
- Absorption enhancement ([1]; enhancer (glycerol or Capmul MCM L8) given intraduodenally 2 hr prior to 1.5 mg zanamivir in PBS): No absorption enhancement; also recorded: no enhanced absorption
- Increase of absolute bioavailability compared to PBS ([1]; intraduodenal, 1.5 mg zanamivir in 50 µL glycerol): 4.7 fold
- Dose-normalized AUClast [1, 3]: 12.7 kg·ng·h/mL/mg
- Dose-normalized AUC∞ [1, 3]: 13 kg·ng·h/mL/mg
- Dose-normalized AUClast [1, 4]: 21.1 kg·ng·h/mL/mg
- Dose-normalized AUC∞ [1, 4]: 29.1 kg·ng·h/mL/mg
- Dose-normalized AUClast [1, 5]: 715 kg·ng·h/mL/mg
- Dose-normalized AUC∞ [1, 5]: 753 kg·ng·h/mL/mg
- Dose-normalized AUClast [1, 6]: 30.6 kg·ng·h/mL/mg
- Dose-normalized AUC∞ [1, 6]: 46.6 kg·ng·h/mL/mg
- Dose-normalized AUClast [1, 7]: 145 kg·ng·h/mL/mg
- Dose-normalized AUC∞ [1, 7]: 153 kg·ng·h/mL/mg
- Cmax [1, 8]: 1430 ng/mL
- Tmax [1, 8]: 4.8 min
- AUC(0-t) [1, 9]: 66.1 ng·h/mL
- AUC(0-t) [1, 10]: 112 ng·h/mL
- AUC(0-t) [1, 11]: 3800 ng·h/mL
- AUC(0-t) [1, 12]: 162 ng·h/mL
- AUC(0-t) [1, 13]: 754 ng·h/mL
- AUC(0-inf) [1, 9]: 69.8 ng·h/mL
- AUC(0-inf) [1, 10]: 156 ng·h/mL
- AUC(0-inf) [1, 11]: 4000 ng·h/mL
- AUC(0-inf) [1, 12]: 244 ng·h/mL
- AUC(0-inf) [1, 13]: 781 ng·h/mL
- Cmax ([1]; 1.5 mg, Figure 4 experiment, intraduodenal, 1.5 mg zanamivir, 25 µL Capmul MCM L8): 1650 ng/mL
- Cmax ([1]; 1.5 mg, Figure 4 experiment, intraduodenal, 1.5 mg zanamivir, 50 µL Capmul MCM L8): 2120 ng/mL
- Cmax ([1]; 1.5 mg, Figure 4 experiment, intraduodenal, 1.5 mg zanamivir, 75 µL Capmul MCM L8): 2570 ng/mL
- Cmax [1, 14]: 3920 ng/mL
- Cmax [1, 9]: 48.6 ng/mL
- Cmax [1, 10]: 77.4 ng/mL
- Cmax [1, 11]: 7230 ng/mL
- Cmax [1, 12]: 134 ng/mL
- Cmax [1, 13]: 948 ng/mL
- half-life ([1]; 1.5 mg, 1.5 mg/animal in PBS, Capmul MCM L8 given 2 hr prior): 51.6 min
- half-life ([1]; 1.5 mg, 1.5 mg/animal in PBS, glycerol given 2 hr prior): 74.4 min
- half-life ([1]; 1.5 mg, 1.5 mg/animal, 50 µL vehicle Capmul MCM L8): 29.4 min
- half-life ([1]; 1.5 mg, 1.5 mg/animal, 50 µL vehicle PBS): 49.8 min
- half-life ([1]; 1.5 mg, 1.5 mg/animal, 50 µL vehicle glycerol): 17.4 min
- Tmax [1, 14]: 4.8 min
- Tmax ([1]; 1.5 mg, intraduodenal, 1.5 mg zanamivir mixed with Capmul MCM L8): 5 min
- Tmax [1, 9]: 60 min
- Tmax [1, 10]: 34.8 min
- Tmax [1, 11]: 4.8 min
- Tmax [1, 12]: 30 min
- Tmax [1, 13]: 30 min
- Cmax ([1]; 1.5 mg/animal, intraduodenal, 50 µL vehicle Capmul MCM L8): > 7200 ng/mL
- Cmax [1, 15]: 7000 ng/mL
- Tmax [1, 15]: 8.4 min
- bioavailability [1, 9]: 0.66%
- bioavailability [1, 10]: 1.1%
- bioavailability [1, 11]: 37.7%
- bioavailability [1, 12]: 1.59%
- bioavailability [1, 13]: 7.53%
- Oral bioavailability [2]: under 2%
